Measurements: US20130115589A1, “Pharmaceutical Composition for Treatment and Prevention of Herpes Virus Infections” (THE UNIVERSITY OF TOKYO, priority 2010, published 2013)
Read-outs that look alike come from different tables or passages of the source.

Experiments:
NMHC-IIA = assay type: cell-based; settings: Vero cells pretreated with ML-7
influenza virus [1] = assay type: cell-based
phosphorylation of RLC = test: Phosphorylation of RLC in Vero cells exposed to HSV-1, immunoblotting; settings: 20 μM ML-7, MOI=50
HSV-1(F) = test: Murine corneal infection model; assay type: in vivo, ICR mice
Description: After the cornea of ICR mice (female/5-week-old) was slightly injured with an injection needle, a medium containing or not containing 20 μM ML-7 was instilled in the eye twice with an interval of 10 minutes. After incubation for 10 minutes, an HSV-1(F) strain was inoculated at 5×10^5 PFU/eye. The virus titer in the tear, symptoms of keratitis, and survival of mice were studied.
After the cornea of 28 ICR mice (female/5-week-old) per group was injured with an injection needle, a 20 μM medium containing or not containing ML-7 and 5×10^5 HSV-1(F) diluted in Medium199 were simultaneously instilled in their eye, followed by observation for 21 days.
After the cornea of 28 ICR mice (female/5-week-old) per group was injured with an injection needle, a 50 μM BAPTA-AM was instilled in their eye twice with an interval of 10 minutes. After incubation for 10 minutes, 5×10^5 HSV-1(F) diluted in Medium 199 was instilled in their eye, followed by observation for 21 days. In Mock-treated group, 0.2% DMSO in Medium 199 was used instead of 50 μM BAPTA-AM.

HSV-1 GFP [2] = assay type: cell-based, Herpes simplex virus 1 (HSV-1); settings: for HSV entry into Vero cells (relative fluorescence intensity): 30 minutes pretreatment, ML-7 20 μM, ACC 40 μM
HSV-2 GFP = HSV-2 GFP infection of Vero cells, flow cytometry; assay type: cell-based, Herpes simplex virus 2; settings: Vero cells pretreated with ML-7
influenza virus [3] = assay type: cell-based; remark: listed apart in the source
NMHC-IIB = NMHC-IIB at the cell surface of HSV-1(F)-infected Cos-1 cells, biotinylation, avidin precipitation, immunoblotting; settings: Cos-1 cells pretreated with ML-7, wild-type HSV-1(F)
HSV-1 GFP [4] = assay type: cell-based, Herpes simplex virus 1 (HSV-1)

O=S(=O)(c1cccc2c(I)cccc12)N1CCCNCC1 [ML-7]
increase in the concentration of NMHC-IIA in the vicinity of the cell membrane upon virus entry (NMHC-IIA): inhibited
influenza virus infection (influenza virus [1]; Vero cells pretreated with ML-7): not influenced
enhancement of phosphorylation of RLC by HSV-1 infection (phosphorylation of RLC): inhibits this enhancement
survival rate of mice (HSV-1(F); 20 μM ML-7 instilled before infection): significant increase
symptoms of keratitis (HSV-1(F); 20 μM ML-7 instilled before infection, after five days, vs untreated mice): significant decrease
virus titer in the tear (HSV-1(F); 20 μM ML-7 instilled before infection, two days after virus inoculation, vs untreated mice): significant decrease
survival rate of mice (HSV-1(F); 20 μM ML-7 instilled simultaneously with HSV-1(F), observation 21 days): further significant increase
Infection with HSV-1 GFP (HSV-1 GFP [2]): inhibited dose-dependently
HSV entry into Vero cells (relative fluorescence intensity) (HSV-1 GFP [2]; […]): inhibited
HSV-2 GFP infection (HSV-2 GFP): dose-independently inhibited
influenza virus infection (influenza virus [3]; Cos-1 cells pretreated with ML-7): not influenced
concentration of NMHC-IIB in the vicinity of the cell membrane (NMHC-IIB): decreased significantly
HSV-1 infection (HSV-1 GFP [4]): dose-independently inhibited

Nc1nc2c(ncn2COCCO)c(=O)[nH]1 [ACC, acyclovir]
HSV entry into Vero cells (relative fluorescence intensity) (HSV-1 GFP [2]; HSV-1 GFP MOI=1, six hours after infection): not inhibited

CC(=O)OCOC(=O)CN(CC(=O)OCOC(C)=O)c1ccccc1OCCOc1ccccc1N(CC(=O)OCOC(C)=O)CC(=O)OCOC(C)=O [BAPTA-AM]
relative MFI, influenza virus (influenza virus [1]): not influenced
survival rate (HSV-1(F); 50 μM BAPTA-AM instilled before infection, observation 21 days, vs Mock-treated group): significantly high
mean fluorescence intensity (MFI), HSV-1 GFP (HSV-1 GFP [2]): decreased in a BAPTA-AM concentration dependent manner
influence on influenza virus infection (influenza virus [3]; Cos-1 cells, BAPTA-AM): not observed
MFI, HSV-1 GFP (HSV-1 GFP [4]): decreased in a BAPTA-AM concentration dependent manner
